Test results taken from publication PMC6381024, “Probing Anti-inflammatory Properties Independent of NF-κB Through Conformational Constraint of Peptide-Based Interleukin-1 Receptor Biased Ligands” (Frontiers in Chemistry, 2019).

Assays:
IL-6 = assay: qPCR of IL-1β-induced IL-6 expression in HEK-Blue IL-33/IL-1β cells; format: cell-based, human; parameters: key to qPCR IL-6 (heatmap grade of inhibition): 0: No effect; No effect 01234 Maximum inhibition/efficacy; No effect 01234 Maximum inhibition/efficacy; No effect 01234 Maximum inhibition/efficacy; 4: Maximum inhibition/efficacy; conditions: for qPCR IL-6 (heatmap grade of inhibition): HEK-Blue cells, peptide 10^-6 M or Kineret 1.0 mg/mL 30 min, then IL-1β 100 ng/mL 4 h (legend: overnight); for Suppression of IL-6 transcription: HEK blue cells, 10^-6 M pre-treatment, IL-1β stimulation
Method: HEK-Blue IL-33/IL-1β cells were purchased from InvivoGen (San Diego, CA) and used at passages under 15. HEK-Blue cells were cultured in DMEM growth medium supplemented with 10% serum, 50 U/mL penicillin, […] streptomycin, […] zeocin, and […] hygromycin. Cells were grown in regular conditions (37°C, 5% CO2). Cells were serum starved overnight and treated with 100 ng/mL IL-1β for 4 h. Cells were pre-incubated for 30 min with peptides 1, 5, or 6 (10^−6M) or Kineret (1.0 mg/mL) prior to the experiments to reach equilibrium (n = 4 each treatment). Cells were harvested and incubated for 5 min in RIBOzol (AMRESCO). RNA was extracted according to manufacturer's protocol and RNA concentration and integrity were measured with a NanoDrop 1,000 spectrophotometer. A total of 500 ng RNA was used to synthetize cDNA using iScript Reverse Transcription SuperMix (Bio-Rad, Hercules, CA). Quantitative gene expression analysis was performed on Stratagene MXPro3000 (Stratagene) with SYBR Green Master Mix (Bio-Rad). Gene expression levels were normalized to 18S universal primer (Ambion Life Technology, Burlington ON, Canada). Genes analyzed include IL1β, IL6, and PTGHS2 [Prostaglandin H synthetase 2 or cyclooxygenase-2 (COX-2)]. Data are representative of 3 experiments (each with n = 4 per treatment group).
Figure 8 The effects of peptides 1, 5, and 6 on the expression of pro-inflammatory genes. HEK-Blue cells were pre-treated with peptides 1, 5, and 6 as above and stimulated with IL-1β overnight. qPCR was performed on cell lysates using 18S rRNA as internal control. Graphs are sorted in columns by gene of interest (COX-2, IL-1β, or IL-6) and rows by peptide configuration [(3R) or (3S)]. Results are representative of an average of 3 independent experiments (each with n = 4 per treatment group) and are expressed as a fold-change of the non-stimulated control: ^*p < 0.05, ^**p < 0.01, ^***p < 0.001, ^****p < 0.0001 compared to group treated only with IL-1β. Treatment groups that are not labeled with asterisks are statistically non-significant compared to group treated only with IL-1β.

JNK = assay: IL-1β-induced JNK phosphorylation, Western blot in RAW Blue cells; format: cell-based; parameters: key to Western Blot JNK (heatmap grade of inhibition): 0: No effect; No effect 01234 Maximum inhibition/efficacy; No effect 01234 Maximum inhibition/efficacy; No effect 01234 Maximum inhibition/efficacy; 4: Maximum inhibition/efficacy; conditions: for Western Blot JNK (heatmap grade of inhibition): RAW Blue cells, peptide 10^-6 M or Kineret 1.0 mg/mL 30 min, then IL-1β 100 ng/mL 15 min
Method: (§1) RAW Blue cells (Invivogen) were grown under standard conditions (37°C, 5% CO2) and maintained under passage number 15. Cells were equilibrated with 1, 5, or 6 (10^−6M) or Kineret (1.0 mg/mL) for 30 min, after which time they were exposed to IL-1β (100 ng/mL) for 15 min. Cells were harvested and lysed on ice for 30 min using a radioimmunoprecipitation assay buffer (Cell Signaling) supplemented with 1 mM phenylmethylsulfonyl fluoride (PMSF) and cOmplete™ EDTA-free protease inhibitor cocktail (Roche, Mannheim, Germany, prepared according to the manufacturer's instructions). Protein concentrations were determined using a Bradford protein assay (Bio-Rad) on 96-well plates with a microplate reader (EnVision Multilabel reader) measuring OD at […]. Bovine serum albumin serial dilutions were used to generate a standard curve. Lysates were then mixed with 4X reducing sample buffer (Bio-Rad).
(§2) Lysates were loaded (30 μg protein per well) in a 5% acrylamide stacking gel, and samples were electrophoresed in a 12% acrylamide resolving gel for 1.5 h at 120 V, followed by a 1 h transfer onto polyvinylidene difluoride (PDVF) membranes at 100 V. Membranes were blocked and incubated with 1:1,000 dilution of primary antibody and 1:20,000 dilution of secondary antibodies according to the manufacturer's instructions. Antibodies used were for phospho-p38 MAPK (Cell Signaling, #9211), p38 MAPK (Cell Signaling, #9212), SAPK/JNK (Cell Signaling, #9252), phospho-SAPK/JNK (Cell Signaling, #9251), ROCK2 (Thermo Fisher Scientific PA5-21131), phospho-ROCK2 (Thermo Fisher Scientific PA5-34895), and goat anti-rabbit conjugated to horseradish peroxidase (Abcam, ab6721). Membranes were imaged using an Amersham Imager 600 (GE Healthcare) using Clarity Western ECL Substrate (Bio-Rad). The intensity of protein bands was quantified using ImageJ and standardized using total (phosphorylated + non-phosphorylated) protein content. Data are representative of three independent experiments.
(§3) Figure 7 The effects of peptides 1, 5, and 6 on IL-1β-induced phosphorylation of JNK, ROCK2, and p38. Graphical representations of band density analysis of Western Blots, sorted into columns based on protein of interest (JNK, ROCK2, or p38) and rows by peptide configuration [(3R-) or (3S)]. RAW-blue cells were pretreated with peptides 1, 5, 6, Kineret, or vehicle for 30 min and then stimulated with IL-1β for 15 min. Images of representative Western Blots can be found in the Supplementary Figure 1. Results shown are the average of 3 independent experiments: ^*p < 0.05, ^**p < 0.01, ^***p < 0.001, ^****p < 0.0001 compared to group treated only with IL-1β. Treatment groups that are not labeled with asterisks are statistically non-significant compared to group treated only with IL-1β.

p38 MAPK = assay: IL-1β-induced p38 MAPK phosphorylation, Western blot in RAW Blue cells; format: cell-based; parameters: key to Western Blot p38 (heatmap grade of inhibition): 0: No effect; No effect 01234 Maximum inhibition/efficacy; No effect 01234 Maximum inhibition/efficacy; No effect 01234 Maximum inhibition/efficacy; 4: Maximum inhibition/efficacy; conditions: for Western Blot p38 (heatmap grade of inhibition): RAW Blue cells, peptide 10^-6 M or Kineret 1.0 mg/mL 30 min, then IL-1β 100 ng/mL 15 min; for Inhibition of IL-1β-induced p38 phosphorylation: RAW-blue cells, 10^-6 M, 30 min, then IL-1β 15 min
Method: as §1, §2, §3

“H-D-Arg-D-Tyr-(3S,4R)-Hgl-D-Val-D-Glu-D-Leu-D-Ala-NH2 [[(3S,4R)-Hgl^3]-1]” was tested, and the “qPCR IL-6 (heatmap grade of inhibition)” value (IL-6) was 4, the “Western Blot JNK (heatmap grade of inhibition)” value (JNK) was 3 and the “Western Blot p38 (heatmap grade of inhibition)” value (p38 MAPK) was 3.
For “Kineret: FDA-approved recombinant IL-1 receptor antagonist”, the “qPCR IL-6 (heatmap grade of inhibition)” value (IL-6) was 4, the “Western Blot JNK (heatmap grade of inhibition)” value (JNK) was 4 and the “Western Blot p38 (heatmap grade of inhibition)” value (p38 MAPK) was 4.
For “H-D-Arg-D-Tyr-(3R,4R)-Hgl-D-Val-D-Glu-D-Leu-D-Ala-NH2 [[(3R,4R)-Hgl^3]-1]”, the “qPCR IL-6 (heatmap grade of inhibition)” value (IL-6) was 4, the “Western Blot JNK (heatmap grade of inhibition)” value (JNK) was 0 and the “Western Blot p38 (heatmap grade of inhibition)” value (p38 MAPK) was 0. For the same substance, the “Inhibition of IL-1β-induced p38 phosphorylation” value (p38 MAPK) was “inactive”.
In the case of “H-D-Arg-D-Tyr-(3R,4S)-Hgl-(S)-Val-D-Glu-D-Leu-D-Ala-NH2 [[(3R,4S)-Hgl^3-(S)-Val^4]-1]”, the “qPCR IL-6 (heatmap grade of inhibition)” value (IL-6) is reported as 2, the “Western Blot JNK (heatmap grade of inhibition)” value (JNK) is reported as 2 and the “Western Blot p38 (heatmap grade of inhibition)” value (p38 MAPK) is reported as 2.
With “H-D-Arg-D-Tyr-(3R,4R)-Hgl-(S)-Val-D-Glu-D-Leu-D-Ala-NH2 [[(3R,4R)-Hgl^3-(S)-Val^4]-1]” the “qPCR IL-6 (heatmap grade of inhibition)” value (IL-6) was 4, the “Western Blot JNK (heatmap grade of inhibition)” value (JNK) was 1 and the “Western Blot p38 (heatmap grade of inhibition)” value (p38 MAPK) was 3.
“H-D-Arg-D-Tyr-(S)-Agl-(S)-Val-D-Glu-D-Leu-D-Ala-NH2 [[(3S)-Agl^3-(S)-Val^4]-1]” was tested, and the “Suppression of IL-6 transcription” value (IL-6) was “ability to suppress the transcription of all three genes was lost”, the “qPCR IL-6 (heatmap grade of inhibition)” value (IL-6) was 1 and the “Western Blot JNK (heatmap grade of inhibition)” value (JNK) was 0. For the same substance, the “Western Blot p38 (heatmap grade of inhibition)” value (p38 MAPK) was 2.
With “H-D-Arg-D-Tyr-D-Thr-D-Val-D-Glu-D-Leu-D-Ala-NH2 [Peptide 1]” the “Suppression of IL-6 transcription” value (IL-6) was “strong suppression of transcription of all three genes”, the “qPCR IL-6 (heatmap grade of inhibition)” value (IL-6) was 4 and the “Western Blot JNK (heatmap grade of inhibition)” value (JNK) was 4. For the same substance, the “Inhibition of IL-1β-induced JNK phosphorylation” value (JNK; RAW-blue cells, 10^-6 M, 30 min, then IL-1β 15 min) was “inhibited the effects of all three kinases”, the “Western Blot p38 (heatmap grade of inhibition)” value (p38 MAPK) was 4 and the “Inhibition of IL-1β-induced p38 phosphorylation” value (p38 MAPK) was “inhibited the effects of all three kinases”.
“H-D-Arg-D-Tyr-(S)-Agl-D-Val-D-Glu-D-Leu-D-Ala-NH2 [[(3S)-Agl^3]-1]” was tested, and the “qPCR IL-6 (heatmap grade of inhibition)” value (IL-6) was 2, the “Western Blot JNK (heatmap grade of inhibition)” value (JNK) was 4 and the “Western Blot p38 (heatmap grade of inhibition)” value (p38 MAPK) was 0. The “Inhibition of IL-1β-induced p38 phosphorylation” value (p38 MAPK) was “inactive”.
For “H-D-Arg-D-Tyr-(R)-Agl-(S)-Val-D-Glu-D-Leu-D-Ala-NH2 [[(3R)-Agl^3-(S)-Val^4]-1]”, the “Suppression of IL-6 transcription” value (IL-6) was “ability to suppress the transcription of all three genes was lost”, the “qPCR IL-6 (heatmap grade of inhibition)” value (IL-6) was 1 and the “Western Blot JNK (heatmap grade of inhibition)” value (JNK) was 0. The “Western Blot p38 (heatmap grade of inhibition)” value (p38 MAPK) was 4 and the “Inhibition of IL-1β-induced p38 phosphorylation” value (p38 MAPK) was “inhibited most effectively”.
“H-D-Arg-D-Tyr-(R)-Agl-D-Val-D-Glu-D-Leu-D-Ala-NH2 [[(3R)-Agl^3]-1]” was tested, and the “qPCR IL-6 (heatmap grade of inhibition)” value (IL-6) was 3, the “Western Blot JNK (heatmap grade of inhibition)” value (JNK) was 4 and the “Western Blot p38 (heatmap grade of inhibition)” value (p38 MAPK) was 0. For the same substance, the “Inhibition of IL-1β-induced p38 phosphorylation” value (p38 MAPK) was “inactive”.
In the case of “H-D-Arg-D-Tyr-(3R,4S)-Hgl-D-Val-D-Glu-D-Leu-D-Ala-NH2 [[(3R,4S)-Hgl^3]-1]”, the “qPCR IL-6 (heatmap grade of inhibition)” value (IL-6) is reported as 4, the “Western Blot JNK (heatmap grade of inhibition)” value (JNK) is reported as 4 and the “Western Blot p38 (heatmap grade of inhibition)” value (p38 MAPK) is reported as 4. The “Inhibition of IL-1β-induced p38 phosphorylation” value (p38 MAPK) was “inhibited most effectively”.
